Assay results taken from patent publication US20260199281A1, “NEW USE OF SIVELESTAT” (SHANGHAI HUILUN PHARMACEUTICAL CO., LTD., priority 2022, published 2026).

Legend:
[1] = system: carrageenan-induced pain models; test: Determination of thermal radiation (thermal pain threshold), carrageenan-induced pain models; assay type: in vivo, SD male rats; details: for Relative value of thermal radiation: single dose, mean ± SD
Experimental: The experimental results were expressed as “mean±standard deviation”. The data of each group were statistically analyzed using the SPSS16.0 software package to compare whether there were statistical differences among the groups. P<0.05 indicated a statistical difference. A total of 72 SD male rats aged 6 to 8 weeks, with body weights of 188-208 g, were divided into 9 groups, with 8 rats in each group. […] Then 20 mL of normal saline was added to the glass bottle. The glass bottle was placed on a magnetic stirrer, and magnetic stirring was performed for 6 hours to obtain a 3% carrageenan solution. The carrageenan solution was stored at 4° C. • 1 Fasting: no • 2 Administration route: IP (intraperitoneal injection) • 3 Administration volume: 5 mL/kg • 4 Administration frequency: single-dose administration • 5 Time of administration: administered immediately after induction Sivelestat sodium: 26 mg of sivelestat sodium (corresponding to a dosage of 10 mg/kg) was weighed. Part of normal saline was added, and sonication and vortexing were performed. The pH was adjusted with […] until a homogeneous solution was obtained, and finally, the volume was made up to 13.0 mL. Experimental samples with other dosages (30 mg/kg, 100 mg/kg) could be prepared according to the specific dosages with reference to a similar method. Parecoxib: 24 mg of parecoxib (corresponding to a dosage of 10 mg/kg) was weighed. Part of normal saline was added, and sonication and vortexing were performed. The pH was adjusted with 10 mol NaOH until a homogeneous solution was obtained, and finally, the volume was made up to 12.0 mL. Experimental samples with other dosages (20 mg/kg) could be prepared according to the specific dosages with reference to a similar method. Samples of other COX-2 inhibitors were prepared with reference to the similar method described above. [table] The animals were placed in a transparent plastic box, and could be allowed to acclimatize for 10 minutes before the test. The middle of the plantar surface of the hind limb on the side where carrageenan was injected in the rats was irradiated with a radiant heat light source to determine their thermal pain threshold. The detection was repeated twice. Then the mean value was taken as the final detection index.

[2] = system: carrageenan-induced pain models; test: Determination of paw swelling volumes, carrageenan-induced pain models; assay type: in vivo, SD male rats; details: for Relative value of paw volumes: single dose, mean ± SD
Experimental: The experimental results were expressed as “mean±standard deviation”. The data of each group were statistically analyzed using the SPSS16.0 software package to compare whether there were statistical differences among the groups. P<0.05 indicated a statistical difference. A total of 72 SD male rats aged 6 to 8 weeks, with body weights of 188-208 g, were divided into 9 groups, with 8 rats in each group. […] Then 20 mL of normal saline was added to the glass bottle. The glass bottle was placed on a magnetic stirrer, and magnetic stirring was performed for 6 hours to obtain a 3% carrageenan solution. The carrageenan solution was stored at 4° C. • 1 Fasting: no • 2 Administration route: IP (intraperitoneal injection) • 3 Administration volume: 5 mL/kg • 4 Administration frequency: single-dose administration • 5 Time of administration: administered immediately after induction Sivelestat sodium: 26 mg of sivelestat sodium (corresponding to a dosage of 10 mg/kg) was weighed. Part of normal saline was added, and sonication and vortexing were performed. The pH was adjusted with […] until a homogeneous solution was obtained, and finally, the volume was made up to 13.0 mL. Experimental samples with other dosages (30 mg/kg, 100 mg/kg) could be prepared according to the specific dosages with reference to a similar method. Parecoxib: 24 mg of parecoxib (corresponding to a dosage of 10 mg/kg) was weighed. Part of normal saline was added, and sonication and vortexing were performed. The pH was adjusted with 10 mol NaOH until a homogeneous solution was obtained, and finally, the volume was made up to 12.0 mL. Experimental samples with other dosages (20 mg/kg) could be prepared according to the specific dosages with reference to a similar method. Samples of other COX-2 inhibitors were prepared with reference to the similar method described above. [table] To measure the paw swelling volumes (paw volumes) of experimental rats, the animals were gently held with one hand, and their hind paws were placed into the instrument used to measure the paw volumes with the other hand. The size of the paw volume was recorded. The measurement was repeated twice, and the mean value was taken as the paw volume of the animals.

[3] = system: carrageenan-induced pain models; test: Determination of mechanical pain thresholds (electronic Von Frey Hairs), carrageenan-induced pain models; assay type: in vivo, SD male rats; details: for Relative value of Von Frey Hairs: single dose, mean ± SD
Experimental: The experimental results were expressed as “mean±standard deviation”. The data of each group were statistically analyzed using the SPSS16.0 software package to compare whether there were statistical differences among the groups. P<0.05 indicated a statistical difference. A total of 72 SD male rats aged 6 to 8 weeks, with body weights of 188-208 g, were divided into 9 groups, with 8 rats in each group. […] Then 20 mL of normal saline was added to the glass bottle. The glass bottle was placed on a magnetic stirrer, and magnetic stirring was performed for 6 hours to obtain a 3% carrageenan solution. The carrageenan solution was stored at 4° C. • 1 Fasting: no • 2 Administration route: IP (intraperitoneal injection) • 3 Administration volume: 5 mL/kg • 4 Administration frequency: single-dose administration • 5 Time of administration: administered immediately after induction Sivelestat sodium: 26 mg of sivelestat sodium (corresponding to a dosage of 10 mg/kg) was weighed. Part of normal saline was added, and sonication and vortexing were performed. The pH was adjusted with […] until a homogeneous solution was obtained, and finally, the volume was made up to 13.0 mL. Experimental samples with other dosages (30 mg/kg, 100 mg/kg) could be prepared according to the specific dosages with reference to a similar method. Parecoxib: 24 mg of parecoxib (corresponding to a dosage of 10 mg/kg) was weighed. Part of normal saline was added, and sonication and vortexing were performed. The pH was adjusted with 10 mol NaOH until a homogeneous solution was obtained, and finally, the volume was made up to 12.0 mL. Experimental samples with other dosages (20 mg/kg) could be prepared according to the specific dosages with reference to a similar method. Samples of other COX-2 inhibitors were prepared with reference to the similar method described above. [table] The animals were placed in a specially designed multi-unit metal mesh cage for pain detection, and allowed to acclimate to the environment for 10 minutes. After the grooming and exploratory activities of the animals ceased and the animals adapted to the detection environment, the sole of the hind limb on the side where carrageenan was injected in the rats was stimulated with electronic Von Frey Hairs. […] The value of the Von Frey Hairs at this time, which was the threshold of the mechanical pain response, was recorded with “gram” as the unit of detection. The detection was repeated twice. Then the mean value was taken as the final detection index. The determination of mechanical pain thresholds was performed at a total of 5 time points, including before administration and 1 h, 3 h, 4 h and 6 h after administration.

[4] = system: rat models of post-operative pain; test: Mechanical hyperalgesia test in rat models of post-operative pain; assay type: in vivo, Male SD rats; details: used alone, i.p., single dose
Experimental: Male SD rats were acclimated to the test environment for 3 days before modeling. On the day of modeling, the animals were anesthetized with Zoletil 50+xylazine hydrochloride (20 mg/kg+8 mg/kg, intraperitoneal injection). A longitudinal incision of approximately 1 cm in length was made towards the toes at a position 0.7-0.8 cm from the heel of the left hind paw of the animals. After the skin was incised, the flexor digitorum brevis muscle was lifted, and a longitudinal blunt injury was inflicted. On the first day after the operation, the model animals were randomly divided into 7 groups according to the baseline values of mechanical hyperalgesia.
Two-way analysis of variance with the Bonferroni's multiple comparison test was performed.

[5] = 10 mg/kg intraperitoneal, 1 hour after administration
[6] = 10 mg/kg intraperitoneal, 3 hours after administration
[7] = 10 mg/kg intraperitoneal, 4 hours after administration
[8] = 10 mg/kg intraperitoneal, 6 hours after administration
[9] = 20 mg/kg intraperitoneal, 1 hour after administration
[10] = 20 mg/kg intraperitoneal, 3 hours after administration
[11] = 20 mg/kg intraperitoneal, 4 hours after administration
[12] = 20 mg/kg intraperitoneal, 6 hours after administration
[13] = 30 mg/kg intraperitoneal, 1 hour after administration
[14] = 30 mg/kg intraperitoneal, 3 hours after administration
[15] = 30 mg/kg intraperitoneal, 4 hours after administration
[16] = 30 mg/kg intraperitoneal, 6 hours after administration
[17] = 100 mg/kg intraperitoneal, 1 hour after administration
[18] = 100 mg/kg intraperitoneal, 3 hours after administration
[19] = 100 mg/kg intraperitoneal, 4 hours after administration
[20] = 100 mg/kg intraperitoneal, 6 hours after administration
[21] = used alone at 10, 30 and 100 mg/kg

CCC(=O)NS(=O)(=O)c1ccc(-c2c(-c3ccccc3)noc2C)cc1 [parecoxib]
Relative value of thermal radiation [1, 5]: 34.6 ± 18.9 % | Relative value of thermal radiation [1, 6]: 16.6 ± 16.7% | Relative value of thermal radiation [1, 7]: 22.7 ± 13.8 % | Relative value of thermal radiation [1, 8]: 14.6 ± 11.0 % | Relative value of thermal radiation [1, 9]: 45.8 ± 25.1 % | Relative value of thermal radiation [1, 10]: 58.5 ± 22.3 % | Relative value of thermal radiation [1, 11]: 37.4 ± 26.7% | Relative value of thermal radiation [1, 12]: 38.0 ± 11.0 % | Relative value of paw volumes [2, 5]: 4.34 ± 25.02% | Relative value of paw volumes [2, 6]: 24.76 ± 11.32 % | Relative value of paw volumes [2, 7]: 22.58 ± 18.82 % | Relative value of paw volumes [2, 8]: 20.81 ± 12.66 % | Relative value of paw volumes [2, 9]: 18.58 ± 45.76% | Relative value of paw volumes [2, 10]: 31.45 ± 25.56 % | Relative value of paw volumes [2, 11]: 19.47 ± 23.41% | Relative value of paw volumes [2, 12]: 23.95 ± 15.74 % | Relative value of Von Frey Hairs [3, 5]: 13.6 ± 5.9 % | Relative value of Von Frey Hairs [3, 6]: 16.4 ± 4.2 % | Relative value of Von Frey Hairs [3, 7]: 15.1 ± 4.5 % | Relative value of Von Frey Hairs [3, 8]: 11.9 ± 5.8 % | Relative value of Von Frey Hairs [3, 9]: 13.7 ± 7.5 % | Relative value of Von Frey Hairs [3, 10]: 17.3 ± 7.9 % | Relative value of Von Frey Hairs [3, 11]: 16.2 ± 4.2 % | Relative value of Von Frey Hairs [3, 12]: 12.4 ± 3.9 %

CC(C)(C)C(=O)Oc1ccc(S(=O)(=O)Nc2ccccc2C(=O)NCC(=O)O)cc1 [sivelestat sodium]
Relative value of thermal radiation [1, 5]: 10.3 ± 28.7% | Relative value of thermal radiation [1, 6]: 19.8 ± 14.0 % | Relative value of thermal radiation [1, 7]: 3.7 ± 5.1% | Relative value of thermal radiation [1, 8]: 4.2 ± 6.2% | Relative value of thermal radiation [1, 13]: 20.9 ± 39.4% | Relative value of thermal radiation [1, 14]: 18.0 ± 21.4% | Relative value of thermal radiation [1, 15]: 4.0 ± 9.3% | Relative value of thermal radiation [1, 16]: 9.2 ± 4.4% | Relative value of thermal radiation [1, 17]: 24.0 ± 41.2% | Relative value of thermal radiation [1, 18]: 22.3 ± 18.0 % | Relative value of thermal radiation [1, 19]: 13.1 ± 11.0% | Relative value of thermal radiation [1, 20]: 5.4 ± 8.1% | analgesic efficacy in the thermal pain threshold test ([1]; used alone at 10 mg/kg and 100 mg/kg, 3 hours after administration): significant analgesic efficacy | Relative value of paw volumes [2, 5]: 4.86 ± 19.10% | Relative value of paw volumes [2, 6]: 8.96 ± 13.90% | Relative value of paw volumes [2, 7]: 1.67 ± 15.59% | Relative value of paw volumes [2, 8]: 3.70 ± 14.04% | Relative value of paw volumes [2, 13]: 20.49 ± 41.12% | Relative value of paw volumes [2, 14]: 17.37 ± 17.14% | Relative value of paw volumes [2, 15]: 14.09 ± 18.97% | Relative value of paw volumes [2, 16]: 14.94 ± 18.68% | anti-inflammatory effect (paw volumes) ([2]; 100 mg/kg alone, 6 h after administration): significant anti-inflammatory effect | Relative value of paw volumes [2, 17]: 3.99 ± 24.23% | Relative value of paw volumes [2, 18]: 18.24 ± 11.26% | Relative value of paw volumes [2, 19]: 13.64 ± 15.23% | Relative value of paw volumes [2, 20]: 19.27 ± 11.40 % | anti-inflammatory effect (paw volumes) compared with the model group [2, 21]: a certain anti-inflammatory effect | Relative value of Von Frey Hairs [3, 5]: 17.1 ± 5.5 % | Relative value of Von Frey Hairs [3, 6]: 15.3 ± 5.9 % | Relative value of Von Frey Hairs [3, 7]: 11.5 ± 6.1 % | Relative value of Von Frey Hairs [3, 8]: 4.8 ± 4.4 % | Relative value of Von Frey Hairs [3, 13]: 18.9 ± 5.9 % | Relative value of Von Frey Hairs [3, 14]: 15.6 ± 7.5 % | Relative value of Von Frey Hairs [3, 15]: 15.2 ± 4.2 % | Relative value of Von Frey Hairs [3, 16]: 4.1 ± 5.0% | Relative value of Von Frey Hairs [3, 17]: 20.4 ± 3.9 % | Relative value of Von Frey Hairs [3, 18]: 18.1 ± 3.7 % | Relative value of Von Frey Hairs [3, 19]: 15.5 ± 4.3 % | Relative value of Von Frey Hairs [3, 20]: 7.9 ± 4.5 % | analgesic efficacy in the mechanical pain threshold test [3, 21]: significant analgesic efficacy | effect on post-operative pain (mechanical hyperalgesia) [4]: significant effect
